According to patent US11078496B2, “System for F-box hormone receptor regulated protein expression in mammalian cells” (ICAHN SCHOOL OF MEDICINE AT MOUNT SINAI, priority 2016, dated 2021):

Tested on: human ESCs
Assay: Proliferation of H9 ESCs under coronatine (growth curves)
Type: cell-based
Details: H9 cells expressing pJAZ NLS-GFP-OsJAZ^33, 50 μM coronatine vs 0.1% DMSO, counted daily
Source text: FIG. 10A is a sequence alignment of O. sativa coronatine-degradable proteins (Tan et al., “Mechanism of Auxin Perception by the TIR1 Ubiquitin Ligase,” Nature 446:640-645 (2007), which is hereby incorporated by reference in its entirety) OsJAZ1 (NP_001064513.1; SEQ ID NO: 4), OsJAZ2 (NP_001049167.1; SEQ ID NO: 5), OsJAZ7 (NP_001063273.1; SEQ ID NO: 6), OsJAZ3 (NP_001049166.1; SEQ ID NO: 7), and A. thaliana AtJAZ1 (NP_564075; SEQ ID NO: 8). Degron sequences used in this study are highlighted and degron names indicated on the right. […] GFP level was analyzed by flow cytometry and % degradation was calculated as described in the Methods. […] FIG. 10F show GFP fluorescence histograms derived from flow cytometric analysis of HEK-293T cells infected with the indicated pJAZ versions, selected and treated with either 0.1% DMSO (“Con”) or 50 μM coronatine (“Cor”). Parental HEK-293T cells were analyzed as a control for background autofluorescence. […] FIG. 10H show the relative median fluorescence of HEK-293T cells infected with pJAZ 7 harboring either GFP-OsJAZ^33 or NLS-GFP-OsJAZ^33. Cells were selected and treated with increasing concentrations of coronatine (“Cor”) and analyzed after 24 hours (left panel), or with 50 μM coronatine for the indicated time periods (right panel). GFP fluorescence was analyzed by flow cytometry. […] Cells were counted daily and growth curves are plotted in FIG. 10K. […]

CC[C@H]1C=C(C(=O)N[C@@]2(C(=O)O)C[C@@H]2CC)[C@H]2CCC(=O)[C@H]2C1 [coronatine, Coronatine]
effect on proliferation: does not affect proliferation
